Laboratory results: DBAASP
≈ marks a conversion by molar mass, not a printed value. Where “and” joins values, the source holds several entries; their conditions need not be identical. Identical values can stand only once.

Tests used:
Experiment in all cases: ≥ marks a high value that may be exact or a test limit, other limits are often not marked, values filed in µg/mL are converted to µM
[1] = test system: Mycobacterium tuberculosis WXY
Escherichia coli = test system: Escherichia coli
Acinetobacter baumannii = test system: Acinetobacter baumannii
[2] = test system: Mycobacterium tuberculosis CAS3
[3] = test system: Mycobacterium tuberculosis H37Rv
Pseudomonas aeruginosa = test system: Pseudomonas aeruginosa
[4] = test system: Pseudomonas aeruginosa H103
[5] = test system: Salmonella enterica serovar Typhimurium
[6] = test system: Pseudomonas aeruginosa PAO1
[7] = test system: Mycobacterium tuberculosis FYX
[8] = test system: Staphylococcus aureus ATCC 25923
Staphylococcus aureus = test system: Staphylococcus aureus
[9] = test system: Escherichia coli ATCC 25922
Escherichia coli AS1.349 = test system: Escherichia coli AS1.349
[10] = test system: Klebsiella pneumoniae subsp. pneumoniae CGMCC 1.176
[11] = test system: Streptococcus sanguinis CGMCC 1.2497
[12] = test system: Lactobacillus acidophilus CGMCC 1.1854
[13] = test system: Fusobacterium nucleatum CGMCC 1.2526
[14] = test system: Streptococcus salivarius CGMCC 1.2498
[15] = test system: Streptococcus mutans CGMCC 1.2500
[16] = test system: Lactococcus lactis AS1.1690
[17] = test system: Pseudomonas aeruginosa CGMCC 1.860
[18] = test system: Candida albicans CMCC 98001
[19] = test system: Staphylococcus aureus AS1.72
[20] = test system: Klebsiella aerogenes CGMCC 1.876
Bacillus cereus AS1.126 = test system: Bacillus cereus AS1.126
[21] = test system: Enterococcus faecalis CGMCC 1.595
[22] = test system: Enterobacter cloacae CGMCC 1.58
[23] = test system: Enterococcus faecium CGMCC 1.2334
[24] = test system: Acinetobacter baumannii ATCC 19606
[25] = test system: Pseudomonas aeruginosa 910
[26] = test system: Haemophilus influenzae ATCC 49247
[27] = test system: Staphylococcus aureus NRS 72
[28] = test system: Bacillus anthracis Sterne 34F2
[29] = test system: Pseudomonas aeruginosa 919
[30] = test system: Mycobacterium tuberculosis H37Ra
[31] = test system: Pseudomonas aeruginosa 253
[32] = test system: Staphylococcus aureus USA 300
[33] = test system: Klebsiella pneumoniae NCTC 9633
[34] = test system: Klebsiella pneumoniae KP3
[35] = test system: Klebsiella pneumoniae KP2
[36] = test system: Staphylococcus aureus RN4220
[37] = test system: Staphylococcus epidermidis NRS 101
[38] = test system: Acinetobacter baumannii AB1
[39] = test system: Staphylococcus aureus VRSA4
[40] = test system: Staphylococcus aureus NRS 846
[41] = test system: Staphylococcus aureus USA 100
[42] = test system: Staphylococcus aureus NRS 1
[43] = test system: Pseudomonas aeruginosa TRPA 111
[44] = test system: Klebsiella pneumoniae KP4
[45] = test system: Staphylococcus aureus ATCC BAA-44
[46] = test system: Staphylococcus aureus ATCC 6538
[47] = test system: Pseudomonas aeruginosa TRPA 108
[48] = test system: Klebsiella pneumoniae KP1
[49] = test system: Staphylococcus aureus USA 400
[50] = test system: Staphylococcus aureus ATCC 43300
[51] = test system: Acinetobacter baumannii AB3
[52] = test system: Staphylococcus aureus 4003
[53] = test system: Acinetobacter baumannii AB2

`CC[C@H](C)[C@H](NC(=O)[C@H](CCCN=C(N)N)NC(=O)[C@H](CC(C)C)NC(=O)[C@H](CCC(N)=O)NC(=O)[C@@H](N)C(C)C)C(=O)N[C@@H](CCCN=C(N)N)C(=O)N[C@H](C(=O)N[C@@H](C)C(=O)N[C@H](C(=O)N[C@H](C(=O)N[C@@H](CCCN=C(N)N)C(=O)N[C@@H](C)C(N)=O)[C@@H](C)CC)C(C)C)C(C)C` [VQLRIRVAVIRA] was tested. Which MIC [1] did it give?
Its MIC is 13.5 µM (≈ 18.7 µg/mL).

And the MIC (Escherichia coli)?
The MIC was 64.9 µM (≈ 90.4 µg/mL).

And the MIC (Acinetobacter baumannii)?
The MIC was ≥ 45.9 µM.

What about the MIC [2] of the same compound?
Its MIC is ≥ 53.8 µM.

What about the MIC [3] of the same compound?
The MIC was 21 µM and 26.9 µM.

What about the MIC (Pseudomonas aeruginosa) of the same compound?
The MIC was 64.9 µM (≈ 90.4 µg/mL).

What about the MIC [4] of the same compound?
Its MIC is ≥ 53.8 µM.

And the MIC [5]?
Its MIC is 23 µM (≈ 32 µg/mL).

What about the MIC [6] of the same compound?
Its MIC is 91.8 µM (≈ 128 µg/mL).

And the MIC [7]?
Its MIC is 26.9 µM (≈ 37.5 µg/mL).

And the MIC [8]?
The MIC was 27.3 µM and 45.9 µM.

What about the MIC (Staphylococcus aureus) of the same compound?
The MIC was 64.9 µM (≈ 90.4 µg/mL).

And the MIC [9]?
Its MIC is 23 µM (≈ 32 µg/mL).

With `CC[C@H](C)[C@H](N)C(=O)N[C@@H](CCCCN)C(=O)N[C@@H](CCCCN)C(=O)N[C@H](C(=O)N[C@H](C(=O)N[C@@H](CO)C(=O)N[C@@H](CCCCN)C(=O)N[C@H](C(=O)N[C@@H](CCCCN)C(=O)N[C@@H](CCCCN)C(=O)N[C@H](C(=O)N[C@@H](CC(C)C)C(=O)N[C@@H](CCCCN)C(N)=O)C(C)C)[C@@H](C)CC)C(C)C)[C@@H](C)CC` [IKKIVSKIKKVLK] as the compound, how does the MIC (Escherichia coli AS1.349) read?
Its MIC is 6.25 µM (≈ 9.53 µg/mL).

What about the MIC [10] of the same compound?
Its MIC is 6.25 µM (≈ 9.53 µg/mL).

What about the MIC [11] of the same compound?
The MIC was 6.25 µM (≈ 9.53 µg/mL).

What about the MIC [12] of the same compound?
The MIC was 6.25 µM (≈ 9.53 µg/mL).

And the MIC [13]?
Its MIC is 6.25 µM (≈ 9.53 µg/mL).

And the MIC [14]?
The MIC was 6.25 µM (≈ 9.53 µg/mL).

What about the MIC [15] of the same compound?
Its MIC is 6.25 µM (≈ 9.53 µg/mL).

And the MIC [16]?
The MIC was 3.12 µM (≈ 4.76 µg/mL).

What about the MIC [17] of the same compound?
The MIC was 6.25 µM (≈ 9.53 µg/mL).

What about the MIC [18] of the same compound?
The MIC was 6.25 µM (≈ 9.53 µg/mL).

What about the MIC [19] of the same compound?
Its MIC is 6.25 µM (≈ 9.53 µg/mL).

And the MIC [20]?
Its MIC is 7.81 µM (≈ 11.9 µg/mL).

And the MIC (Bacillus cereus AS1.126)?
Its MIC is 3.12 µM (≈ 4.76 µg/mL).

What about the MIC [21] of the same compound?
Its MIC is 7.81 µM (≈ 11.9 µg/mL).

What about the MIC [22] of the same compound?
The MIC was 7.81 µM (≈ 11.9 µg/mL).

What about the MIC [23] of the same compound?
The MIC was 7.81 µM (≈ 11.9 µg/mL).

Which results are given for `CC(C)[C@H](NC(=O)[C@H](Cc1c[nH]c2ccccc12)NC(=O)[C@H](CCCN=C(N)N)NC(=O)[C@H](Cc1c[nH]c2ccccc12)NC(=O)[C@H](Cc1c[nH]c2ccccc12)NC(=O)[C@H](CCCN=C(N)N)NC(=O)[C@@H](N)CCCN=C(N)N)C(=O)N[C@H](C(=O)N[C@@H](Cc1c[nH]c2ccccc12)C(N)=O)C(C)C` [RRWWRWVVW]?
MIC [24]: 10 µM (≈ 14.3 µg/mL); MIC [25]: 8 µM (≈ 11.4 µg/mL); MIC [26]: ≥ 40 µM; MIC [27]: 20 µM (≈ 28.6 µg/mL); MIC [28]: 20 µM (≈ 28.6 µg/mL); MIC [29]: 2 µM (≈ 2.86 µg/mL); MIC [30]: 20 µM (≈ 28.6 µg/mL); MIC [31]: 8 µM (≈ 11.4 µg/mL); MIC [32]: 20 µM (≈ 28.6 µg/mL); MIC [33]: 2.5 µM (≈ 3.57 µg/mL)

With `NC(N)=NCCC[C@H](NC(=O)[C@H](CCCN=C(N)N)NC(=O)[C@H](Cc1c[nH]c2ccccc12)NC(=O)[C@H](Cc1c[nH]c2ccccc12)NC(=O)[C@H](CCCN=C(N)N)NC(=O)[C@H](CCCN=C(N)N)NC(=O)[C@H](Cc1c[nH]c2ccccc12)NC(=O)[C@H](Cc1c[nH]c2ccccc12)NC(=O)[C@H](CCCN=C(N)N)NC(=O)[C@H](Cc1c[nH]c2ccccc12)NC(=O)[C@H](Cc1c[nH]c2ccccc12)NC(=O)[C@@H](N)CCCN=C(N)N)C(=O)O` [RWWRWWRRWWRR] as the compound, how does the MIC [34] read?
Its MIC is 15.4 µM (≈ 32 µg/mL).

And the MIC [35]?
Its MIC is 15.4 µM (≈ 32 µg/mL).

What about the MIC (Acinetobacter baumannii) of the same compound?
Its MIC is 2.7 µM (≈ 5.6 µg/mL).

What about the MIC (Pseudomonas aeruginosa) of the same compound?
The MIC was 3.3 µM (≈ 6.84 µg/mL).

What about the MIC [36] of the same compound?
Its MIC is 2 µM (≈ 4.14 µg/mL).

What about the MIC [37] of the same compound?
Its MIC is 4 µM (≈ 8.29 µg/mL).

And the MIC [38]?
The MIC was 2.41 µM (≈ 5 µg/mL).

And the MIC [39]?
Its MIC is 5.66 µM (≈ 11.7 µg/mL).

And the MIC [40]?
The MIC was 16 µM (≈ 33.2 µg/mL).

And the MIC [41]?
The MIC was 3.38 µM (≈ 7 µg/mL).

And the MIC [42]?
The MIC was 1 µM (≈ 2.07 µg/mL).

And the MIC [43]?
Its MIC is 1.45 µM (≈ 3 µg/mL).

And the MIC [44]?
Its MIC is 15.4 µM (≈ 32 µg/mL).

And the MIC [45]?
The MIC was 4 µM (≈ 8.29 µg/mL).

And the MIC [46]?
Its MIC is 4 µM (≈ 8.29 µg/mL).

And the MIC [47]?
Its MIC is 1.93 µM (≈ 4 µg/mL).

And the MIC [48]?
Its MIC is 13 µM (≈ 27 µg/mL).

What about the MIC [49] of the same compound?
Its MIC is 2 µM (≈ 4.14 µg/mL).

And the MIC [50]?
The MIC was 2 µM (≈ 4.14 µg/mL).

What about the MIC [51] of the same compound?
The MIC was 5.31 µM (≈ 11 µg/mL).

And the MIC [52]?
The MIC was 1.45 µM (≈ 3 µg/mL).

What about the MIC [53] of the same compound?
Its MIC is 1.45 µM (≈ 3 µg/mL).
